Experiments:
[1] = Solubility in aqueous media; assay type: physicochemical
[2] = Contact lens uptake: content left in solution after shaking with lenses; assay type: physicochemical; settings: Myristylamine with TPGS 20 fold
Description: The results in Table 9A show the remaining quaternary ammonium and tertiary amine content left in solution after a 15 ml-solution-2 lenses closed system has been shaken for 6 days at room temperature. […] The control which was run for this experiment, which includes the remaining ingredients in the solutions referenced in Table 9A are listed in Table 9B. As one of ordinary skill in the art would realize, the less quaternary ammonium or tertiary amine content remaining in solution after the shaking period, the higher the absorption by the lenses.

[3] = system: five FDA/ISO specified test organisms; assay: Antimicrobial activity against the five-microbial panel, FDA/ISO disinfection criteria; assay type: cell-based; settings: for stand-alone criteria: 10 ppm MA
Description: The following is the procedure by which various antimicrobial agents and solutions are tested for their ability to reduce microbial loads over short periods of time, typically 24 hours and less. The procedure is a basic microbiology challenge test, which involves the inoculation of test product aliquots with a known number of viable cells of several test organisms, and assay for the survivors at various time intervals. The results are used to calculate log drops at soak times and construct kill-curves (graphs of survivors versus time) if desired. Candida albicans, ATCC 10231, is one of five organisms specified per FDA and ISO/CLI tests for the testing of contact lens disinfectants (FDA Premarket Notification (510k) Guidance Document for Contact Lens Care Products, Appendix B, Apr. 1, 1997 and ISO/FDIS 14729: Ophthalmic optics-Contact lens care products-Microbiological requirements and test methods for products and regimens for hygienic management of contact lenses, January 2001). Contact lens disinfectants are also known as contact lens multi-purpose solutions when they are used for rinsing, cleaning, disinfection, storage and rewetting contact lenses. The five FDA/ISO specified test organisms are listed below: • Serratia marcescens, ATCC 13880 • Staphylococcus aureus, ATCC 6538 • Pseudomonas aeruginosa, ATCC 9027 • Candida albicans, ATCC 10231 • Fusarium solani, ATCC 36031 Candida albicans is often the most resistant of the five organisms to commonly used cationic antimicrobial agents in contact lens multi-purpose solutions. Thus, achievement of adequate antimicrobial activity against Candida is often the most difficult task to pass a particular disinfection efficacy standard. FDA and ISO guidelines specify two disinfection efficacy standards, indicated in the table below: Stand Alone Disinfectant (Primary) Criteria: [table] The specific test procedure for testing antimicrobial activity against the five FDA/ISO specified test organisms is as follows (C. albicans is provided as a specific example): Test samples are sterile-filtered through a 0.22 micron sterile filter into sterile plastic high density polyethylene bottles or plastic flasks. A 10-mL aliquot of test sample is aseptically transferred into a sterile polystyrene plastic test tube. Sterile saline (0.90 w/v % NaCl) with 0.05 w/v % Polysorbate 80 (SS+TWEEN) is transferred into a separate control tube. All samples and control are stored at 20-25° C. throughout the duration of the test.

[4] = system: Serratia marcescens, ATCC 13880; assay: Microbiology challenge test, log drop; assay type: cell-based; settings: for Log drop at 6 hour: Table 6: Myristylamine 0.001 % w/w
Description: The following is the procedure by which various antimicrobial agents and solutions are tested for their ability to reduce microbial loads over short periods of time, typically 24 hours and less. The procedure is a basic microbiology challenge test, which involves the inoculation of test product aliquots with a known number of viable cells of several test organisms, and assay for the survivors at various time intervals. The results are used to calculate log drops at soak times and construct kill-curves (graphs of survivors versus time) if desired.
Candida albicans, ATCC 10231, is one of five organisms specified per FDA and ISO/CLI tests for the testing of contact lens disinfectants (FDA Premarket Notification (510k) Guidance Document for Contact Lens Care Products, Appendix B, Apr. 1, 1997 and ISO/FDIS 14729: Ophthalmic optics-Contact lens care products-Microbiological requirements and test methods for products and regimens for hygienic management of contact lenses, January 2001). Contact lens disinfectants are also known as contact lens multi-purpose solutions when they are used for rinsing, cleaning, disinfection, storage and rewetting contact lenses. The five FDA/ISO specified test organisms are listed below: • Serratia marcescens, ATCC 13880 • Staphylococcus aureus, ATCC 6538 • Pseudomonas aeruginosa, ATCC 9027 • Candida albicans, ATCC 10231 • Fusarium solani, ATCC 36031
The specific test procedure for testing antimicrobial activity against the five FDA/ISO specified test organisms is as follows (C. albicans is provided as a specific example): Test samples are sterile-filtered through a 0.22 micron sterile filter into sterile plastic high density polyethylene bottles or plastic flasks. A 10-mL aliquot of test sample is aseptically transferred into a sterile polystyrene plastic test tube. Sterile saline (0.90 w/v % NaCl) with 0.05 w/v % Polysorbate 80 (SS+TWEEN) is transferred into a separate control tube. All samples and control are stored at 20-25° C. throughout the duration of the test.
Test cultures of Candida albicans, ATCC 10231 are prepared in the conventional manner. Candida albicans cultures are grown on agar slants from primary frozen, lyophilized or “Culti-loop®” cultures. Three mL of sterile 0.9% saline is used to gently dislodge culture growth from the agar surface. The resulting harvest is transferred to an appropriate screw cap test tube containing glass beads and vortexed for approximately one minute. The vortexed harvest is diluted as needed with sterile 0.9% saline to prepare the culture inoculum with a concentration of 1×10e8 CFU/mL. Fifty microliters of culture inoculum is added to 10.0 mL of each test sample and control, so that the final inoculum level is in the range of 1×10e5 to 1×10e6 CFU(colony forming units) per mL of Candida albicans, ATCC 10231. Each sample and control tube is vortexed briefly to disperse the inoculum. Contact time intervals for testing activity against Candida are typically 4 or 6 hours, to conform to the intended product label instructions for contact lens soak time.
Aerobic Plate Count Methods are performed in order to quantitate test samples for their levels of survivors. At appropriate assay times, 0.5 mL well-vortexed aliquots are removed from sample tubes and added to glass test tubes containing 4.5 mL Letheen Neutralizing Broth media (Berton, Dickinson and Company, Sparks, Md.). After a previously determined, validated neutralizing time period, these samples are diluted 10-fold through serial dilutions using glass test tubes containing 4.5 mL Letheen Neutralizing Broth media. Aliquots of 0.1 mL are removed from each dilution tube and spread-plate applied to agar plates containing Sabouraud Dextrose Agar (SAB)(Berton, Dickinson and Company, Sparks, Md.). 10^1 to 10^4 CFU/mL survivor levels are quantitated. […]

Structure (SMILES): CCCCCCCCCCCCCCN [Myristylamine]
- solubility in aqueous solution with acid and surfactant ([1]; acid and surfactant containing an alkyl chain coexist, solution pH below 6): may be dissolved in an aqueous solution
- solubility in acid ([1]; ambient temperature, solution pH below 2): insoluble in acid at ambient temperature
- solubility in water ([1]; water or basic solution): does not dissolve in water or in a basic solution
- remaining content left in solution, Acuvue ([2]; 15 ml solution, 2 Acuvue lenses, closed system shaken 6 days at room temperature): 34.1 ppm
- remaining content left in solution, Purevision ([2]; 15 ml solution, 2 Purevision lenses, closed system shaken 6 days at room temperature): 13.0 ppm
- remaining content left in solution, Without Lens ([2]; 15 ml system without lenses, shaken 6 days at room temperature): 37.9 ppm
- stand-alone criteria ([3]; Tween 80:MA ratio 7.4): fail to meet the stand-alone criteria
- stand-alone criteria ([3]; Tween 80:MA ratio 7.4, with addition of Polyquaternium-1): can still be a stand-alone disinfectant product
- anti-bacteria activity ([3]; TPGS:MA ratio of 40): lost considerably
- anti-fungal activity (Ca and Fs) ([3]; TPGS:MA ratio of up to 60): still seen
- Log Drop ([4]; Table 2A: Myristylamine 0.0003 % w/w, Tetronic 1307 0.05, pH 7.8): 1.18
- Log Drop ([4]; Table 2A: Myristylamine 0.0005 % w/w, Tetronic 1307 0.05, pH 7.8): 2.6
- Log Drop ([4]; Table 3: Myristylamine 0.0005 w/v % with WSCP 0.001, NaClO2 0.01, NaCitrate 0.4, T1307 0.05): 3.1
- Log Drop ([4]; Table 3: Myristylamine 0.0005 w/v %, WSCP 0.0, NaClO2 0.0, NaCitrate 0.0, T1307 0.05): 1.68
- Log Drop ([4]; Table 4: Myristylamine 0.0003 w/v % with PHMB 0.00003, Tetronic 1107 0.05, pH 7.8): 3.46
- Log Drop ([4]; Table 4: Myristylamine 0.0003 w/v %, PHMB 0, Tetronic 1107 0.05, pH 7.8): 1.18
- Log Drop ([4]; Table 5: Myristylamine 0.0005 w/v % with Polyquaternium-1 0.001, NaCitrate 0.6, Tetronic 1304 0.05, pH 7.8): 3.64
- Log drop at 6 hour ([4]; Tween 80 0.0074, Polyquaternium-1 0, pH 7.3, 6 hour): 1.19
- Log drop at 6 hour ([4]; Tween 80 0.0074, with Polyquaternium-1 0.000075, pH 7.3, 6 hour): 3.12

Source: US20050228046A1, “Alkylamine as an antimicrobial agent in ophthalmic compositions” (ADVANCED MEDICAL OPTICS, INC., priority 2004, published 2005)
